Source: patent US8227510B2, “Combine use of pterostilbene and quercetin for the production of cancer treatment medicaments” (Universitat de Valencia, priority 2004, dated 2012)

Key:
B16M-F10 cells = assay: Inhibition in vitro of the growth of B16M-F10 cells; type: cell-based
Experimental: B16M-F10 cells were cultured in Dulbecco's modified Eagle's medium (DMEM; Gibco Labs., Grand Island, N.Y., USA), pH 7.4, supplemented with 10% fetal serum (Gibco), HEPES 10 mM, NaHCO3 40 mM, 100 U/ml of penicillin and 100 μg/ml of streptomycin (20).
The B16M-F10 melanoma, highly aggressive, is a model that is widely used for investigating metastatic spread and tissue invasion (21), and for this reason was chosen for our studies. In the first group of experiments, we studied the effect in vitro of t-PTER+QUER on the growth of B16M-F10 cells. To reproduce the conditions in vivo after i.v. administration, we incubated B16M-F10 cells in the presence of t-PTER (40 μM) and/or QUER (20 μM) for a limited period (60 minutes) (this represents a value that approximates to the average of the concentrations of PTER and QUER measured in the plasma during the first hour after i.v. administration of 20 mg/kg of each polyphenol (FIG. 2). For comparison, we also used t-RESV (12 μM; selection of this concentration was based on a similar criterion, see the data cited in ref. 14). The polyphenols were added to the incubation medium every 24 hours and, as mentioned, they were only present for 60 minutes.
Also for comparison, we incubated B16M-F10 cells in the presence of t-PTER+QUER at concentrations representing an approximate average value of the total level of each polyphenol measured in the plasma in the first hour after oral administration (11 μM of PTER and 1 μM of QUER) (see Table 1). Both polyphenols, as free forms, were constantly present in the incubation medium.
FIG. 2. Inhibition in vitro of the growth of B16M-F10 cells by brief exposure to resveratrol (RESV), pterostilbene (PTER) and/or quercetin (QUER). All the points are mean values±SD corresponding to 5-6 independent experiments. *P<0.05, **P<0.01 compared with the control values.

in vivo = assay: in vivo; parameters: species or system mice; conditions: mouse
Source text: The mice (C57BL/6J, male, 6-8 weeks) were from Charles River Spain (Barcelona). The procedures and animal care were based on institutional standards and complied with national and international laws and policies (Directive 86/609, OJ L 358. 1 of the Council of the European Community, of 12 Dec. 1987) and the “Guide for the Care and Use of Laboratory Animals” of the National Institutes of Health (NIH, USA) (NIH Publication No. 85-23, 1985). All the animals were fed according to concentrated laboratory diets (Letica, Barcelona, Spain) allowing them free access to food and submitting them to a cycle of 12 hours of light/12 hours of darkness with ambient temperature of 22° C. The experiments were begun at 10.00 a.m. to minimize the effects of diurnal variations.
For the pharmacokinetic studies and for the daily treatment, the mice were administered i.v. (via the jugular vein, where a permanent catheter had previously been fixed by surgical methods; i.v. administration was carried out slowly for 1 minute), and orally (via stomach tube), 20 mg/kg of t-PTER (dissolved in ethanol 0.5 ml/kg of animal weight) or QUER (dissolved in dimethylsulfoxide:saline, 1:0.5 0.15 ml/kg of weight). In general, the compositions based on a combination of PTER and QUER can contain, as excipients, those stated previously or any others that are pharmaceutically acceptable. The presentation of said compositions can be, non-limitatively, in the form of solids such as tablets, capsules, pellets, pills, etc. and liquid presentations such as drops, syrups, injectables, etc. Moreover, the active principles (PTER and QUER) of the composition can be in their uncombined forms or in the form of pharmaceutically acceptable salts, including esters. The t-PTER was synthesized in our laboratory following standardized reactions of Wittig and Heck (www.orgsyn.org), whereas the QUER was obtained from Sigma Chemical Co. (San Luis, Mo., USA). The ^3H-t-PTER (2.2 Ci/mmol), labeled in the ortho and para positions of the benzene rings, was prepared in our laboratory according to a method similar to that used for the deuteration of phenols (18). ^14C-QUER (50 mCi/mmol), labeled in position 4 of the carbon ring, was obtained from the NCI Radiochemical Carcinogen Repository of Chemsyn Laboratories (Kansas City, Mo., USA). The radioactivity was measured using a Varisette 2700 TR analyzer from Packard. Blood was collected by means of the catheter in 1-ml syringes that contained heparin sodium (0.05 ml of a 5% solution in […]). The plasma and the erythrocytes were separated as described previously (19).
LC-MS/MS was carried out using a Quattro Micro triple quadrupole mass spectrometer (Micromass, Manchester, UK) equipped with an LC-10Advp pump, an SLC-10Avp control system and an SIL-10Advp autoinjector from Shimadzu. The samples were analyzed by reverse-phase high-performance liquid chromatography using a Prodigy ODS column (100×2 mm) from Phenomenex (Torrance, Calif., USA), with a particle size of 3 μm. In all cases, 40 μl was injected into the column. Column temperature was maintained at 25° C. The following gradient system was used, pumped through the column at 0.2 ml/minute (min/% A/% B/% C) (A, methanol; B, 10% acetonitrile and 90% ammonium formate 10 mM pH 3.75; C, ammonium formate 10 mM pH 3.75): 0/5/5/90, 10/5/5/90, 20/5/90/5, 30/100/0/0, 40/5/5/90. The negative ion tandem mass spectra obtained by electrospray were recorded with the electrospray capillary fixed at […] and at a temperature of the source block of 120° C. Nitrogen was used as nebulizer gas and drying gas, with flows of 300 and 30 l/h, respectively. Argon at 1.5×10^−3 mbar was used as the collision gas for collision-induced dissociation. A test was carried out based on LC-MS/MS with tracking of multiple reactions using the transitions m/z 255-240 for PTER and […] for QUER, which in both cases represent favorable fragmentation routes for these deprotonated molecules. […]

[1] = t-PTER 40 μM, QUER 20 μM, t-RESV 12 μM, added every 24 hours, present for 60 minutes

Structure (SMILES)	inhibition of the growth of B16M-F10 (B16M-F10 cells; [1])	PTER measured in plasma or blood in the trans form (in vivo; male, C57BL/6J)	half-life (in vivo; male, C57BL/6J, iv, 20 mg/kg) [min]	time in which plasma concentration decreases to ~1 μM (in vivo; male, C57BL/6J, iv, 20 mg/kg) [min]	levels in whole blood compared with plasma (in vivo)	effect on growth of B16M-F10 cells at concentrations found after oral administration (B16M-F10 cells; t-PTER 11 μM and/or QUER 1 μM, constantly present in the medium)	inhibition at 20 µM (B16M-F10 cells; [1]) [%]	effect of t-RESV on the percentage inhibition of growth promoted by t-PTER+QUER (B16M-F10 cells; t-RESV 12 μM added to t-PTER 40 μM + QUER 20 μM)	half-life (in vivo) [min]
COc1cc(/C=C/c2ccc(O)cc2)cc(OC)c1 [PTER, pterostilbene]	40%	At least 99%	~77.9	480	not significantly different				
O=c1c(O)c(-c2ccc(O)c(O)c2)oc2cc(O)cc(O)c12 [QUER, quercetin]			~20.1	120	not significantly different	did not have a significant effect	19		
Oc1ccc(C=Cc2cc(O)cc(O)c2)cc1 [RESV, resveratrol, reference compound]	did not have a significant effect							did not significantly affect	~10.2
